Test results reported in the NIST ThermoML archive (doi:10.1021/je500804j).

Test: mn = molality of the nth substance listed, in mol/kg
Conditions: 101 kPa, Liquid, Alternating current cell with electrodes

CCCCCCCC[N+](C)(C)CCCCCCCCCCCC[N+](C)(C)CCCCCCCC.[Br-].[Br-] + O
Conditions	electrical conductivity [S/m]
308.15 K, m1 = 0.01941	0.3482
308.15 K, m1 = 0.02017	0.3578
308.15 K, m1 = 0.02093	0.3674
308.15 K, m1 = 0.02167	0.3751
308.15 K, m1 = 0.0224	0.3838
308.15 K, m1 = 0.02312	0.3913
308.15 K, m1 = 0.02383	0.4003
308.15 K, m1 = 0.02453	0.4069
308.15 K, m1 = 0.02522	0.4161
308.15 K, m1 = 0.02589	0.421
308.15 K, m1 = 0.02722	0.4336
308.15 K, m1 = 0.02787	0.4365
308.15 K, m1 = 0.02851	0.4424
308.15 K, m1 = 0.02956	0.4571
308.15 K, m1 = 0.03058	0.4621
308.15 K, m1 = 0.03158	0.4749
308.15 K, m1 = 0.03256	0.48
308.15 K, m1 = 0.03351	0.489
308.15 K, m1 = 0.03536	0.5074
308.15 K, m1 = 0.03625	0.5158
308.15 K, m1 = 0.03712	0.5223
308.15 K, m1 = 0.03798	0.527
308.15 K, m1 = 0.03964	0.541
308.15 K, m1 = 0.04123	0.5548
308.15 K, m1 = 0.04275	0.5671
308.15 K, m1 = 0.04422	0.5777
308.15 K, m1 = 0.04563	0.5885
308.15 K, m1 = 0.04699	0.5986
308.15 K, m1 = 0.04829	0.6068
308.15 K, m1 = 0.05077	0.6251
308.15 K, m1 = 0.05194	0.6322
313.15 K, m1 = 0.00357	0.06951
313.15 K, m1 = 0.00692	0.1517
313.15 K, m1 = 0.01009	0.2177
313.15 K, m1 = 0.01308	0.2687
313.15 K, m1 = 0.01591	0.3262
313.15 K, m1 = 0.01726	0.3465
313.15 K, m1 = 0.01859	0.3645
313.15 K, m1 = 0.01987	0.3859
313.15 K, m1 = 0.02113	0.4024
313.15 K, m1 = 0.02187	0.4121
313.15 K, m1 = 0.02259	0.4248
313.15 K, m1 = 0.02331	0.4317
313.15 K, m1 = 0.02401	0.4367
313.15 K, m1 = 0.02471	0.4441
313.15 K, m1 = 0.02539	0.4521
313.15 K, m1 = 0.02606	0.4597
313.15 K, m1 = 0.02673	0.467
313.15 K, m1 = 0.02803	0.4808
313.15 K, m1 = 0.02866	0.4878
313.15 K, m1 = 0.02929	0.4944
313.15 K, m1 = 0.03052	0.5075
313.15 K, m1 = 0.03112	0.5138
313.15 K, m1 = 0.03171	0.5209
313.15 K, m1 = 0.0323	0.5266
313.15 K, m1 = 0.03326	0.5361
313.15 K, m1 = 0.03419	0.5442
313.15 K, m1 = 0.03511	0.5535
313.15 K, m1 = 0.036	0.5625
313.15 K, m1 = 0.03688	0.5732
313.15 K, m1 = 0.03774	0.5794
313.15 K, m1 = 0.03858	0.5898
313.15 K, m1 = 0.0394	0.5956
313.15 K, m1 = 0.041	0.6125
313.15 K, m1 = 0.04253	0.6257
313.15 K, m1 = 0.044	0.637
313.15 K, m1 = 0.04541	0.6512
313.15 K, m1 = 0.04678	0.665
313.15 K, m1 = 0.04809	0.6744
313.15 K, m1 = 0.04935	0.6838
313.15 K, m1 = 0.05057	0.6958
313.15 K, m1 = 0.05175	0.7055
318.15 K, m1 = 0.00371	0.07542
318.15 K, m1 = 0.00722	0.164
318.15 K, m1 = 0.01052	0.245
318.15 K, m1 = 0.01364	0.3143
318.15 K, m1 = 0.01659	0.3687
